{"source": "patent US8247211B2", "about": "“Glycopeptide antibiotics” (American Cyanamid Company, priority 2001, dated 2012)", "key": {"[1]": {"system": "Staphylococcus aureus-SMITH (GC 4543)", "assay": "Acute lethal infection in mice (ED50)", "type": "in vivo", "conditions": "female CD-1 mice, intraperitoneal challenge, intravenous dose 30 min. after infection, 7 day survival ratios", "in_short": "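Lethal systemic infection model: female CD-1 mice, 20 ± 1-2 g, intraperitoneal challenge. Single intravenous treatment 30 min after infection; 7-day survival, pooled from 3 tests, gives ED50.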"}, "[2]": {"type": "in vivo", "conditions": "mice, 20 mg/kg intravenously daily for 9 days, serum on day 10", "experimental": "20-day-old CD-1 mice were divided into a vehicle control group (5 mice) and a treatment group (5 mice). Samples of glycopeptide antibiotics were administered at 20 mg/kg intravenously daily for 9 days. Animals were necropsied on day 10 Sera were analyzed for BUN (blood urea nitrogen), creatinine, AST (aspartic aminotransferase), and ALT (alanine aminotransferase) by routine, standard, automated methods using an Hitachi 747 chemistry analyzer."}, "[3]": {"assay": "Anatomic pathology (heart and kidney histopathology) in mice", "type": "in vivo, CD-1 mice", "conditions": "20 mg/kg intravenously daily for 9 days, microscopic histopathology on day 10", "in_short": "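Juvenile CD-1 mice (20 days old; 5 vehicle, 5 treated) received glycopeptide antibiotic 20 mg/kg i.v. daily for 9 days. Necropsied tissues formalin-fixed, paraffin-embedded, H&E stained and examined microscopically; findings graded slight to severe versus controls.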"}, "[4]": {"system": "Escherichia coli", "assay": "In vitro antibacterial evaluation: minimum inhibitory concentration (MIC), broth dilution method", "type": "cell-based", "conditions": "18 hours at 35° C.", "in_short": "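NCCLS M7-A2 broth dilution; Muller-Hinton II […]; 5×10^5 CFU/mL; 64-0.06 μg/mL. MIC = lowest concentration with no growth.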"}, "[5]": {"system": "Staphylococcus sp.", "assay": "In vitro antibacterial evaluation: minimum inhibitory concentration (MIC), broth dilution method", "type": "cell-based", "in_short": "(§1)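 Test strains, among them recent clinical isolates carrying methicillin, penicillin and/or vancomycin resistance, were inoculated at 5×10^5 CFU/mL. A broth dilution series spanning 64-0.06 μg/mL in Muller-Hinton II […] (NCCLS M7-A2) defined the MIC as the lowest growth-inhibiting concentration.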"}, "[6]": {"system": "Streptococcus sp.", "assay": "In vitro antibacterial evaluation: minimum inhibitory concentration (MIC), broth dilution method", "type": "cell-based", "conditions": "18 hours at 35° C.", "in_short": "as §1"}, "[7]": {"system": "Enterococcus sp.", "assay": "In vitro antibacterial evaluation: minimum inhibitory concentration (MIC), broth dilution method", "type": "cell-based", "conditions": "18 hours at 35° C.", "in_short": "as §1"}, "[8]": {"conditions": "broth dilution, inoculum 5×10^5 CFU/mL"}}}
{"smiles": "N=C1NCC(C(O)C2NC(=O)C(Cc3ccc(OC4OC(CO)C(OC5OC6COC7(OC6C(O)C5O)C5CC6CC(C5)CC7C6)C(O)C4O)cc3)NC(=O)C(Cc3ccccc3)NC(=O)CNC(=O)C(CO)NC(=O)C(C(O)C3CNC(=N)N3C3OC(CO)C(O)C(O)C3O)NC2=O)N1", "note": "(centres unmarked) [Example 220]", "values": [{"measurement": "median effective dose (ED50), Staphylococcus aureus-SMITH (GC 4543)", "setting": "[1]", "value": 0.19, "unit": "mg/kg"}, {"measurement": "Clinical Chemistry (Day 10) % of Control, BUN", "setting": "[2]", "value": 149, "unit": "%"}, {"measurement": "Clinical Chemistry (Day 10) % of Control, Creatinine", "setting": "[2]", "value": 121, "unit": "%"}, {"measurement": "Anatomical Pathology (Day 10), Heart", "setting": "[3]", "value": 0}, {"measurement": "Anatomical Pathology (Day 10), Kidney", "setting": "[3]", "value": "+++"}, {"measurement": "MIC Escherichia coli (ATCC 25922)", "setting": "[4]; Escherichia coli (ATCC 25922)", "value": 32, "unit": "mg/L"}, {"measurement": "MIC Escherichia coli (GC 4559)", "setting": "[4]; Escherichia coli (GC 4559)", "value": 16, "unit": "mg/L"}, {"measurement": "MIC Escherichia coli (GC 4560)", "setting": "[4]; Escherichia coli (GC 4560)", "value": 0.5, "unit": "mg/L"}, {"measurement": "MIC Staphylococcus aureus (ATCC 29213)", "setting": "[5]; strain ATCC 29213", "value": 0.5, "unit": "mg/L"}, {"measurement": "MIC Staphylococcus aureus (GC 1131)", "setting": "[5]; strain GC 1131", "value": 1, "unit": "mg/L"}, {"measurement": "MIC Staphylococcus aureus (GC 3051)", "setting": "[5]; strain GC 3051", "value": 1, "unit": "mg/L"}, {"measurement": "MIC Staphylococcus aureus (GC 3053)", "setting": "[5]; strain GC 3053", "value": 1, "unit": "mg/L"}, {"measurement": "MIC Staphylococcus aureus (GC 4541)", "setting": "[5]; strain GC 4541", "value": 1, "unit": "mg/L"}, {"measurement": "MIC Staphylococcus aureus (GC 4542)", "setting": "[5]; strain GC 4542", "value": 0.5, "unit": "mg/L"}, {"measurement": "MIC Staphylococcus aureus-SMITH (GC 4543)", "setting": "[5]; strain GC 4543", "value": 1, "unit": "mg/L"}, {"measurement": "MIC Staphylococcus aureus (GC 4544)", "setting": "[5]; strain GC 4544", "value": 1, "unit": "mg/L"}, {"measurement": "MIC Staphylococcus aureus (GC 4545)", "setting": "[5]; strain GC 4545", "value": 0.5, "unit": "mg/L"}, {"measurement": "MIC Staphylococcus haemolyticus (GC 4546)", "setting": "[5]; strain GC 4546", "value": 0.25, "unit": "mg/L"}, {"measurement": "MIC Coagulase Negative Staphylococcus (GC 4547)", "setting": "[5]; strain GC 4547", "value": 0.5, "unit": "mg/L"}, {"measurement": "MIC Coagulase Negative Staphylococcus (GC 4548)", "setting": "[5]; strain GC 4548", "value": 0.25, "unit": "mg/L"}, {"measurement": "MIC Coagulase Negative Staphylococcus (GC 4549)", "setting": "[5]; strain GC 4549", "value": 0.25, "unit": "mg/L"}, {"measurement": "MIC Coagulase Negative Staphylococcus (GC 4551)", "setting": "[5]; strain GC 4551", "value": 0.5, "unit": "mg/L"}, {"measurement": "MIC Streptococcus agalactiae (GC 4564)", "setting": "[6]; Streptococcus agalactiae (GC 4564)", "value": "<0.06", "unit": "mg/L"}, {"measurement": "MIC Streptococcus pneumoniae (ATCC 6301)", "setting": "[6]; Streptococcus pneumoniae (ATCC 6301)", "value": "<0.06", "unit": "mg/L"}, {"measurement": "MIC Streptococcus pneumoniae (GC 1894)", "setting": "[6]; Streptococcus pneumoniae (GC 1894)", "value": "<0.06", "unit": "mg/L"}, {"measurement": "MIC Streptococcus pneumoniae (GC 4565)", "setting": "[6]; Streptococcus pneumoniae (GC 4565)", "value": "<0.06", "unit": "mg/L"}, {"measurement": "MIC Streptococcus pyogenes (GC 4563)", "setting": "[6]; Streptococcus pyogenes (GC 4563)", "value": "<0.06", "unit": "mg/L"}, {"measurement": "MIC Streptococcus agalactiae (GC 4564)", "setting": "[6]; [8]", "value": "<0.06", "unit": "mg/L"}, {"measurement": "MIC Streptococcus pneumoniae (ATCC 6301)", "setting": "[6]; [8]", "value": "<0.06", "unit": "mg/L"}, {"measurement": "MIC Streptococcus pneumoniae (GC 1894)", "setting": "[6]; [8]", "value": "<0.06", "unit": "mg/L"}, {"measurement": "MIC Streptococcus pneumoniae (GC 4565)", "setting": "[6]; [8]", "value": "<0.06", "unit": "mg/L"}, {"measurement": "MIC Streptococcus pyogenes (GC 4563)", "setting": "[6]; [8]", "value": "<0.06", "unit": "mg/L"}, {"measurement": "MIC Enterococcus avium (GC 4558)", "setting": "[7]; Enterococcus avium (GC 4558)", "value": 2, "unit": "mg/L"}, {"measurement": "MIC Enterococcus faecalis (ATCC 29212)", "setting": "[7]; Enterococcus faecalis (ATCC 29212)", "value": 2, "unit": "mg/L"}, {"measurement": "MIC Enterococcus faecalis (GC 2242)", "setting": "[7]; Enterococcus faecalis (GC 2242)", "value": 1, "unit": "mg/L"}, {"measurement": "MIC Enterococcus faecalis (GC 2691)", "setting": "[7]; Enterococcus faecalis (GC 2691)", "value": 2, "unit": "mg/L"}, {"measurement": "MIC Enterococcus faecalis (GC 3059)", "setting": "[7]; Enterococcus faecalis (GC 3059)", "value": 2, "unit": "mg/L"}, {"measurement": "MIC Enterococcus faecalis (GC 4552)", "setting": "[7]; Enterococcus faecalis (GC 4552)", "value": 2, "unit": "mg/L"}, {"measurement": "MIC Enterococcus faecalis (GC 4553)", "setting": "[7]; Enterococcus faecalis (GC 4553)", "value": 1, "unit": "mg/L"}, {"measurement": "MIC Enterococcus faecalis (GC 4554)", "setting": "[7]; Enterococcus faecalis (GC 4554)", "value": 2, "unit": "mg/L"}, {"measurement": "MIC Enterococcus faecalis (GC 6189)", "setting": "[7]; Enterococcus faecalis (GC 6189)", "value": 1, "unit": "mg/L"}, {"measurement": "MIC Enterococcus faecium (GC 2243)", "setting": "[7]; Enterococcus faecium (GC 2243)", "value": 1, "unit": "mg/L"}, {"measurement": "MIC Enterococcus faecium (GC 4556)", "setting": "[7]; Enterococcus faecium (GC 4556)", "value": 1, "unit": "mg/L"}, {"measurement": "MIC Enterococcus faecium (GC 4557)", "setting": "[7]; Enterococcus faecium (GC 4557)", "value": 1, "unit": "mg/L"}, {"measurement": "MIC Enterococcus avium (GC 4558)", "setting": "[7]; [8]", "value": 2, "unit": "mg/L"}, {"measurement": "MIC Enterococcus faecalis (ATCC 29212)", "setting": "[7]; [8]", "value": 2, "unit": "mg/L"}, {"measurement": "MIC Enterococcus faecalis (GC 2242)", "setting": "[7]; [8]", "value": 1, "unit": "mg/L"}, {"measurement": "MIC Enterococcus faecalis (GC 2691)", "setting": "[7]; [8]", "value": 2, "unit": "mg/L"}, {"measurement": "MIC Enterococcus faecalis (GC 3059)", "setting": "[7]; [8]", "value": 2, "unit": "mg/L"}, {"measurement": "MIC Enterococcus faecalis (GC 4552)", "setting": "[7]; [8]", "value": 2, "unit": "mg/L"}, {"measurement": "MIC Enterococcus faecalis (GC 4553)", "setting": "[7]; [8]", "value": 1, "unit": "mg/L"}, {"measurement": "MIC Enterococcus faecalis (GC 4554)", "setting": "[7]; [8]", "value": 2, "unit": "mg/L"}, {"measurement": "MIC Enterococcus faecalis (GC 6189)", "setting": "[7]; [8]", "value": 1, "unit": "mg/L"}, {"measurement": "MIC Enterococcus faecium (GC 2243)", "setting": "[7]; [8]", "value": 1, "unit": "mg/L"}, {"measurement": "MIC Enterococcus faecium (GC 4556)", "setting": "[7]; [8]", "value": 1, "unit": "mg/L"}, {"measurement": "MIC Enterococcus faecium (GC 4557)", "setting": "[7]; [8]", "value": 1, "unit": "mg/L"}]}
